pIC50: −log10 of the molar value.
What was measured:
[1] = target: Cyclin-dependent kinase-like 1 (Homo sapiens) (UniProt Q00532); assay: Binding affinity to wild-type human full length CDKL1 (M1 to I358 residues) expressed in mammalian expression system assessed as residual binding level at 10 uM by Kinomescan method relative to control
[2] = system: Phosphatidylinositol 4,5-bisphosphate 3-kinase catalytic subunit alpha isoform (Homo sapiens), P42336 [E545A]; assay: Binding affinity to human partial length PIK3CA E545A mutant (R108 to N1068 residues) expressed in mammalian expression system assessed as residual binding level at 10 uM by Kinomescan method relative to control
[3] = target: Membrane-associated tyrosine- and threonine-specific cdc2-inhibitory kinase (Homo sapiens) (UniProt Q99640); assay: Binding affinity to wild-type human partial length PKMYT1 (A88 to G366 residues) expressed in bacterial expression system assessed as residual binding level at 10 uM by Kinomescan method relative to control
[4] = target: Serine/threonine-protein kinase WNK1 (Homo sapiens) (UniProt Q9H4A3); assay: Binding affinity to wild-type human partial length WNK1 (Q194 to A490 residues) expressed in mammalian expression system assessed as residual binding level at 10 uM by Kinomescan method relative to control
[5] = target: Phosphatidylinositol 5-phosphate 4-kinase type-2 gamma (Homo sapiens) (UniProt Q8TBX8); assay: Binding affinity to wild-type human partial length PIP5K2C (M1 to A421 residues) expressed in mammalian expression system assessed as residual binding level at 10 uM by Kinomescan method relative to control
[6] = target: Serine/threonine-protein kinase MAK (Homo sapiens) (UniProt P20794); assay: Binding affinity to wild-type human partial length MAK (M1 to P314 residues) expressed in bacterial expression system assessed as residual binding level at 10 uM by Kinomescan method relative to control
[7] = target: 5'-AMP-activated protein kinase catalytic subunit alpha-1 (Homo sapiens) (UniProt Q13131); assay: Binding affinity to wild-type human partial length AMPK alpha1 (M1 to E306 residues) expressed in bacterial expression system assessed as residual binding level at 10 uM by Kinomescan method relative to control
[8] = target: SRSF protein kinase 3 (Homo sapiens) (UniProt Q9UPE1); assay: Binding affinity to wild-type human partial length SRPK3 (P41 to P567 residues) expressed in bacterial expression system assessed as residual binding level at 10 uM by Kinomescan method relative to control
[9] = target: Serine/threonine-protein kinase ULK3 (Homo sapiens) (UniProt Q6PHR2); assay: Binding affinity to wild-type human partial length ULK3 (M1 to Q290 residues) expressed in mammalian expression system assessed as residual binding level at 10 uM by Kinomescan method relative to control
[10] = target: Cyclin-dependent kinase 5/CDK5 activator 1 (Homo sapiens, UniProt Q00535); type: protein-complex assay
Cyclin-dependent kinase 5/CDK5 activator 1, sequence (Q00535 whole entry, the tested form may be a part): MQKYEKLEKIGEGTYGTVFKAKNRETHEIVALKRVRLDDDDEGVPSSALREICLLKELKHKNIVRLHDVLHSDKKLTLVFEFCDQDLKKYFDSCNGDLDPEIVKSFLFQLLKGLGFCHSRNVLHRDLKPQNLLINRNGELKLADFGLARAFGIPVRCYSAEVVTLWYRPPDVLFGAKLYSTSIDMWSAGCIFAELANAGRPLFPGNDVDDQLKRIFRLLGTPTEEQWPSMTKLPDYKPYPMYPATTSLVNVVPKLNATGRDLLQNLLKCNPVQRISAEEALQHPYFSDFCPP
Cyclin-dependent kinase 5/CDK5 activator 1, sequence (Q15078 whole entry, further chain, the tested form may be a part): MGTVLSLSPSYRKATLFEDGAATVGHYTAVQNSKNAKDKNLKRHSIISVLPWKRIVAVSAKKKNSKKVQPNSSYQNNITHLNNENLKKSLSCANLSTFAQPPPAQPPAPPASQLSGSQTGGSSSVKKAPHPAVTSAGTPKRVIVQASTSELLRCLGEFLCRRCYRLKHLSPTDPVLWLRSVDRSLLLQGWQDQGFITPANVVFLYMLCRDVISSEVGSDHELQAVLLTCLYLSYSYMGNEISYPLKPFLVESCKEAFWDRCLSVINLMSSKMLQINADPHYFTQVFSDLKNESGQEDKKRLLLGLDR
Description: Inhibition of human recombinant CDK5/p25 using histone H1 as substrate in presence of [gamma-33P]ATP incubated for 30 mins by liquid scintillation counting assay

[11] = target: NUAK family SNF1-like kinase 1 (Homo sapiens) (UniProt O60285); assay: Binding affinity to wild-type human partial length ARK5 (E25 to I332 residues) expressed in bacterial expression system assessed as residual binding level at 10 uM by Kinomescan method relative to control
[12] = target: Cyclin-dependent kinase 18 (Homo sapiens) (UniProt Q07002); assay: Binding affinity to wild-type human full length PCTK3 (M3 to F474 residues) expressed in bacterial expression system assessed as residual binding level at 10 uM by Kinomescan method relative to control
[13] = target: Cyclin-dependent kinase 9 (Homo sapiens) (UniProt P50750); assay: Binding affinity to wild-type human full length CDK9 (M1 to F372 residues) expressed in bacterial expression system assessed as residual binding level at 10 uM by Kinomescan method relative to control
Cyclin-dependent kinase 9 (Homo sapiens), sequence (P50750 whole entry, the tested form may be a part): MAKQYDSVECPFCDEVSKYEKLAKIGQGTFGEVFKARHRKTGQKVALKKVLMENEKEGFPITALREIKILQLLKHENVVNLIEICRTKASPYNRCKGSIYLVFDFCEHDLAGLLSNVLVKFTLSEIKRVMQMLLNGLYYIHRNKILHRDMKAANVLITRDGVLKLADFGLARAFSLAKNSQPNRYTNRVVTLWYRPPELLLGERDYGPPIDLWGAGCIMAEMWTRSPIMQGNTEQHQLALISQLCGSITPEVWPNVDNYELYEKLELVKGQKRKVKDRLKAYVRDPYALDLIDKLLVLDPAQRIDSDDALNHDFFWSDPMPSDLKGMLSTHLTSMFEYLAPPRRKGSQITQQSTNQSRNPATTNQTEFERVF

MDCK-MDR1 = assay: Cytotoxicity against MDCK2-MDR1 cells assessed as reduction in cell viability at 75 uM incubated for 2 hrs by MTT assay; type: ADME, cell-based, Canis lupus familiaris; details: dog, mdck-mdr1, 2 h
[14] = target: Homeodomain-interacting protein kinase 3 (Homo sapiens) (UniProt Q9H422); assay: Binding affinity to wild-type human partial length HIPK3 (M153 to N562 residues) expressed in mammalian expression system assessed as residual binding level at 10 uM by Kinomescan method relative to control
[15] = target: Mitogen-activated protein kinase kinase kinase kinase 4 (Homo sapiens) (UniProt O95819); assay: Binding affinity to wild-type human partial length MAP4K4 (M1 to R310 residues) expressed in bacterial expression system assessed as residual binding level at 10 uM by Kinomescan method relative to control
[16] = system: Phosphatidylinositol 4,5-bisphosphate 3-kinase catalytic subunit alpha isoform (Homo sapiens), P42336 [E545K]; assay: Binding affinity to human partial length PIK3CA E545K mutant (R108 to N1068 residues) expressed in mammalian expression system assessed as residual binding level at 10 uM by Kinomescan method relative to control
Phosphatidylinositol 4,5-bisphosphate 3-kinase catalytic subunit alpha isoform (Homo sapiens), P42336 [E545K], sequence (P42336 whole entry E545K, the tested form may be a part, canonical isoform): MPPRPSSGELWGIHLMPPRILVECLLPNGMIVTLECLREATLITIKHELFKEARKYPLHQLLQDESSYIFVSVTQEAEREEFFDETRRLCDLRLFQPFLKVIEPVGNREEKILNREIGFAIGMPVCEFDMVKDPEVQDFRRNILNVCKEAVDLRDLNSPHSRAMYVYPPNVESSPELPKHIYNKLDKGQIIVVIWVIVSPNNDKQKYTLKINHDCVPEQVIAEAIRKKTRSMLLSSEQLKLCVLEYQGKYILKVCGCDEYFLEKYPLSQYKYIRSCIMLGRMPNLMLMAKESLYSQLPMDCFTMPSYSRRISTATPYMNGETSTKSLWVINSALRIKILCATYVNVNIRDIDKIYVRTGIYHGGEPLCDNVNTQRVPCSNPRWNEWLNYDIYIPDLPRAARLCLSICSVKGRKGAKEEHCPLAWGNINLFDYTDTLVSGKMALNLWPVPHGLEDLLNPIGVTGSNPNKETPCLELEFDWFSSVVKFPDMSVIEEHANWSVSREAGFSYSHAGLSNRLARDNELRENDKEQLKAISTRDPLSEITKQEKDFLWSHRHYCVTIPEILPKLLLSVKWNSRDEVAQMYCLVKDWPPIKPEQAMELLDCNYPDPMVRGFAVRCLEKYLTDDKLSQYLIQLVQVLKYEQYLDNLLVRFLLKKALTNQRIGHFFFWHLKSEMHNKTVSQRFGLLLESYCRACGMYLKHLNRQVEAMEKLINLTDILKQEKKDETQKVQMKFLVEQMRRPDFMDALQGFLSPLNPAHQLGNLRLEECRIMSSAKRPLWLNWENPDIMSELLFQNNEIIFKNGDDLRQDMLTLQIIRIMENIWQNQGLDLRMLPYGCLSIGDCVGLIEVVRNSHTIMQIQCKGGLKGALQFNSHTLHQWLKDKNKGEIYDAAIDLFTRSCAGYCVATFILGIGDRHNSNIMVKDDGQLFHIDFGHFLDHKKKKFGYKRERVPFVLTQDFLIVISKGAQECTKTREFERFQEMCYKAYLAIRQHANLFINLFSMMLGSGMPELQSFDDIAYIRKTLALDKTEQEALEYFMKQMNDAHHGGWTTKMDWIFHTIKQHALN

[17] = target: Cyclin-dependent kinase 16 (Homo sapiens) (UniProt Q00536); assay: Binding affinity to wild-type human partial length PCTK1 (G160 to A474 residues) expressed in mammalian expression system assessed as residual binding level at 10 uM by Kinomescan method relative to control
[18] = target: Tyrosine-protein kinase Blk (Homo sapiens) (UniProt P51451); assay: Binding affinity to wild-type human partial length BLK (G211 to L503 residues) expressed in bacterial expression system assessed as residual binding level at 10 uM by Kinomescan method relative to control
[19] = system: Tyrosine-protein kinase ABL1 (Homo sapiens), P00519 [F317L]; assay: Binding affinity to human phosphorylated ABL1 F317L mutant (S229 to K512 residues) expressed in mammalian expression system assessed as residual binding level at 10 uM by Kinomescan method relative to control
Tyrosine-protein kinase ABL1 (Homo sapiens), P00519 [F317L], sequence (P00519 whole entry F317L, the tested form may be a part): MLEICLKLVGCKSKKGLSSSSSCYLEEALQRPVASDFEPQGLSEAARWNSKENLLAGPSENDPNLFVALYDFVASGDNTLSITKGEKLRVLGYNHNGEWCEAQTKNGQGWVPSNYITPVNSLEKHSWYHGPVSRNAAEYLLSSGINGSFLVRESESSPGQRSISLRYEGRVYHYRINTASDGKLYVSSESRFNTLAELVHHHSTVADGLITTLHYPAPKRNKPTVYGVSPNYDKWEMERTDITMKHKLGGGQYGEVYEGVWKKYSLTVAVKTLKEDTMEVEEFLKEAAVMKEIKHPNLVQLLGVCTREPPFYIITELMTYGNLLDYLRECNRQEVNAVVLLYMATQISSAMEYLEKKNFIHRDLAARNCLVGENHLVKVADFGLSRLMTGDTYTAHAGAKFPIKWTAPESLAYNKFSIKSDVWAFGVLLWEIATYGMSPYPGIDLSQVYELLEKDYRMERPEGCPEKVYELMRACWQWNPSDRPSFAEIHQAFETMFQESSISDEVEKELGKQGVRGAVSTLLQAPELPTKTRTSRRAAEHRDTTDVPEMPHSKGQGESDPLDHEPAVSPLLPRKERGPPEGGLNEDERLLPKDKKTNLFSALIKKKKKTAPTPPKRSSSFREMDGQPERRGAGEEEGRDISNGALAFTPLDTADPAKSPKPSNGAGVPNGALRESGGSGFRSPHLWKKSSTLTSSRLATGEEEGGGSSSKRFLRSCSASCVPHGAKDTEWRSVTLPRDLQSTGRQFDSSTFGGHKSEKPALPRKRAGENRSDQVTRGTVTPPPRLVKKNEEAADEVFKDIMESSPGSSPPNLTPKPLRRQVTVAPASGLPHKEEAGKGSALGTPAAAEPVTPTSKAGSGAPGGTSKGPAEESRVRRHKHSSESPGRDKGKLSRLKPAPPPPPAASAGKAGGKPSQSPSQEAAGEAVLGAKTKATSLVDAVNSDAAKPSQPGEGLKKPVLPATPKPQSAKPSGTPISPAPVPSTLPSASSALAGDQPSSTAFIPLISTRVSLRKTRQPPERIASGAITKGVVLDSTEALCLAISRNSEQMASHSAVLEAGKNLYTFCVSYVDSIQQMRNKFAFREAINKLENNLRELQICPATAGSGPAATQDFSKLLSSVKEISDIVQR

[20] = target: Serine/threonine-protein kinase 16 (Homo sapiens) (UniProt O75716); assay: Binding affinity to wild-type human partial length STK16 (G11 to I305 residues) expressed in bacterial expression system assessed as residual binding level at 10 uM by Kinomescan method relative to control
[21] = target: Casein kinase I isoform alpha-like (Homo sapiens) (UniProt Q8N752); assay: Binding affinity to wild-type human full length CSNK1A1L (M1 to N337 residues) expressed in bacterial expression system assessed as residual binding level at 10 uM by Kinomescan method relative to control
[22] = target: Cyclin-dependent kinase-like 5 (Homo sapiens) (UniProt O76039); assay: Binding affinity to wild-type human partial length CDKL5 (M1 to S337 residues) expressed in mammalian expression system assessed as residual binding level at 10 uM by Kinomescan method relative to control
Cyclin-dependent kinase-like 5 (Homo sapiens), sequence (O76039 whole entry, the tested form may be a part): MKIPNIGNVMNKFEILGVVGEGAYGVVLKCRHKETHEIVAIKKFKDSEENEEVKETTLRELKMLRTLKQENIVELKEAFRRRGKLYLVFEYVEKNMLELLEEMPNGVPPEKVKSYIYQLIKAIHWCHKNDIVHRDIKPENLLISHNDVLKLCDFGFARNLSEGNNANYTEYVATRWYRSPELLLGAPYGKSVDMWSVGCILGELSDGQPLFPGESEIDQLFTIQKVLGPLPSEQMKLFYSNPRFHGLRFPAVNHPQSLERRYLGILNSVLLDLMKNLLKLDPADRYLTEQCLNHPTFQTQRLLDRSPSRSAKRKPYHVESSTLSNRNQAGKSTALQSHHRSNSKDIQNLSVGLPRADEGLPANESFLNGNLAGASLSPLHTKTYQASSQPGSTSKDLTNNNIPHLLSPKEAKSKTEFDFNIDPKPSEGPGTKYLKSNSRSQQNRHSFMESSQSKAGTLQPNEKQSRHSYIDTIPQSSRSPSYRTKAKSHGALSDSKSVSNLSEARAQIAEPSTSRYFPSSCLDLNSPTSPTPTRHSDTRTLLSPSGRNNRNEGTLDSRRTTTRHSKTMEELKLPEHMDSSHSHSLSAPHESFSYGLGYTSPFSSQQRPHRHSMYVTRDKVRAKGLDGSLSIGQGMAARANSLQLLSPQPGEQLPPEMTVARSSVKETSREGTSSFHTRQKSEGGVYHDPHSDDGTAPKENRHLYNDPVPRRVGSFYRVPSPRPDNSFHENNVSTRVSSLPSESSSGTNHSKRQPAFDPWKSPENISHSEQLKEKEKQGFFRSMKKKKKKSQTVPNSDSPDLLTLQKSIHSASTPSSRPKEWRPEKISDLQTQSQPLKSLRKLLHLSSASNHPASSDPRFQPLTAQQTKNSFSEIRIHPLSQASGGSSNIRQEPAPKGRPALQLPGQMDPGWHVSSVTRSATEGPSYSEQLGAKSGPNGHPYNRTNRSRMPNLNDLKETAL

[23] = target: Tyrosine-protein kinase Fgr (Homo sapiens) (UniProt P09769); assay: Binding affinity to wild-type human partial length FGR (L233 to T529 residues) expressed in bacterial expression system assessed as residual binding level at 10 uM by Kinomescan method relative to control
Tyrosine-protein kinase Fgr (Homo sapiens), sequence (P09769 2-529 limits assumed): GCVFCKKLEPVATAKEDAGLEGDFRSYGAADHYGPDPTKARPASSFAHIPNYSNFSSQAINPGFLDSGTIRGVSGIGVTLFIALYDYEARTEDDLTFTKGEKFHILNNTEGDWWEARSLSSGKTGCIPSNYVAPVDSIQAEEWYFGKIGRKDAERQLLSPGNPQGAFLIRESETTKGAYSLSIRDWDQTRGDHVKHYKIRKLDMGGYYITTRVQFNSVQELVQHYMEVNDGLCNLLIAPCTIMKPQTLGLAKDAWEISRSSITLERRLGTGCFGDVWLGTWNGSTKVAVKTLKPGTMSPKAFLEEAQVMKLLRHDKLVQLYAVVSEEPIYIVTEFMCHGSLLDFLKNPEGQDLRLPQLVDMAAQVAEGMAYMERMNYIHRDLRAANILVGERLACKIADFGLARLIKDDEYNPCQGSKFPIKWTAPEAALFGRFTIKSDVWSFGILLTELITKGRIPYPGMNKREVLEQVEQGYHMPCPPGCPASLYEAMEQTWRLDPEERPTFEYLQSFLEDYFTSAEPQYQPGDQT

[24] = Cytotoxicity against human SH-SY5Y cells assessed as reduction in cell viability at 100 uM incubated for 24 hrs by MTT assay relative to untreated cells; type: cell-based; details: read-out: INH

Cyclin-dependent kinase-like 1 (Homo sapiens), sequence (Q00532 whole entry, the tested form may be a part, canonical isoform): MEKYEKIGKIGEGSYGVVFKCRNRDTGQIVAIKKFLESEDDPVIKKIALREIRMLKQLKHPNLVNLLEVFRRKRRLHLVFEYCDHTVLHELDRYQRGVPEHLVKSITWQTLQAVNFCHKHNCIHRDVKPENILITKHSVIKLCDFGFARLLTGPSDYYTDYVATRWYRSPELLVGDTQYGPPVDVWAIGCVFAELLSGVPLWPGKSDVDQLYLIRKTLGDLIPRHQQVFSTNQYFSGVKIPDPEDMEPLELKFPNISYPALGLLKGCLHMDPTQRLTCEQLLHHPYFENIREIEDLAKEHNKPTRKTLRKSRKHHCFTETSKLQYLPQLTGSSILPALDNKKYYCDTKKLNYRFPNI

O=C(Nc1cc(-c2cn(CCNc3c4c(nc5ccccc35)CCCC4)nn2)ccn1)Nc1cccc2c1C1CCCCN1C2=O (racemic)
Activity [1]: 3% | Activity [2]: 72% | Activity [3]: 90% | Activity [4]: 100% | Activity [5]: 3.4% | Activity [6]: 52% | Activity [7]: 31% | Activity [8]: 15% | Activity [9]: 43% | pIC50 [10]: 6.10 | Activity [11]: 0.85% | Activity [12]: 6.2% | Activity [13]: 3.8% | Activity (MDCK-MDR1): Non-Toxic | Activity [14]: 99% | Activity [15]: 97% | Activity [16]: 78% | Activity [17]: 4.3% | Activity [18]: 44% | Activity [19]: 20% | Activity [20]: 1.9% | Activity [21]: 4.5% | Activity [22]: 0.35% | Activity [23]: 97% | cytotoxicity at 24 h, 100 µM [24]: 50%

From ChEMBL document CHEMBL4390652, “Design, biological evaluation and X-ray crystallography of nanomolar multifunctional ligands targeting simultaneously acetylcholinesterase and glycogen synthase kinase-3” (Eur J Med Chem, 2019)
